Source: patent publication US11466044B2 (WAYNE STATE UNIVERSITY, priority 2017, dated 2022)
Values after ≈ are worked out from the molar mass of the structure shown. Like-named read-outs stand apart in the source and are kept apart here.

Columns and labels:
[1] = test system: Acinetobacter baumannii pittii AG225; experiment: MIC by broth microdilution, Acinetobacter baumannii; format: cell-based; details: strain AG225 Acinetobacter baumannii pittii
[2] = test system: Klebsiella pneumonia AG215; experiment: MIC by broth microdilution, Klebsiella pneumonia; format: cell-based; details: Klebsiella pneumoniae; strain AG215 Klebsiella pneumonia; read-out: MIC AG215 K. pneumon
[3] = test system: Enterobacter cloacae AG290; experiment: MIC by broth microdilution, Enterobacter cloacae; format: cell-based; details: strain AG290 Enterobacter cloacae; read-out: MIC AG290 E. cloacae
M. smegmatis SZ380 = experiment: MIC by broth microdilution, M. smegmatis; details: Mycolicibacterium smegmatis
[4] = test system: E coli carrying specific resistance determinants; experiment: MIC by broth microdilution, E coli carrying specific resistance determinants; format: cell-based; details: for MIC: Escherichia coli
E coli wild type = experiment: MIC by broth microdilution, wild type E coli; format: cell-based; details: for MIC: Escherichia coli
N. gonorrhoeae = experiment: Disk diffusion, N. gonorrhoeae; format: cell-based; details: Neisseria gonorrhoeae
P aeruginosa = experiment: MIC by broth microdilution, P aeruginosa isolates; format: cell-based, Pseudomonas aeruginosa
[5] = test system: A1555G mutant mitochondrial ribosome (human chimeric); experiment: in-vitro translation assay, human chimeric ribosomes, A1555G mutant mitochondrial decoding site; format: biochemical; details: human mitochondrial decoding site with A1555G point mutation; read-out: IC50 Mitoch. A1555G
Source text: (§1) The antiribosomal activity of these compounds was investigated with cell-free translation assays using both wild type bacterial ribosomes and hybrid ribosomes carrying eukaryotic decoding A sites enabling the prediction of selectivity.

M. abscessus = experiment: MIC by broth microdilution, M. abscessus; format: cell-based; details: Mycobacteroides abscessus
[6] = test system: cytosolic ribosome (human chimeric); format: biochemical
Source text: as §1

[7] = test system: mitochondrial ribosome (human chimeric); format: biochemical
Source text: as §1

[8] = test system: wild type bacterial ribosomes; experiment: in-vitro translation assay, bacterial ribosomes; format: biochemical
Source text: as §1

MRSA = experiment: MIC by broth microdilution, MRSA isolates; format: cell-based; details: for MIC: Staphylococcus aureus, MRSA
[9] = test system: rabbit reticulocyte ribosomes; experiment: in-vitro translation assay, rabbit reticulocyte ribosomes; format: biochemical; details: mammalian cytosolic ribosomes (rabbit)
[10] = SZ380, read-out: MIC SZ380 M. smegmatis, strain SZ380 Mycobacterium smegmatis
[11] = read-out: MIC AG037 E. coli APH(3′)-III
[12] = read-out: MIC AG163 E. coli APH(3′)-I
[13] = read-out: MIC AG166 E. coli APH(3′)-II
[14] = read-out: MIC pH421 E. coli APH(3′)-I
[15] = read-out: MIC pH422 E. coli APH(3′)-II
[16] = read-out: MIC pH423 E. coli APH(3′)-VI
[17] = ATCC25922, strain AG212 E. coli (ATCC25922), read-out: MIC AG212 E. coli
[18] = clinical isolate AG160 WT, Table 2 (Example 4), read-out: MIC AG160 E. coli WT
[19] = engineered strain pH430 WT, Table 2 (Example 4), read-out: MIC pH430 E. coli WT
[20] = ribosomes with a human cytosolic decoding site, read-out: IC50 Cytosolic
[21] = ribosomes with a human mitochondrial decoding site, read-out: IC50 Mitoch.
[22] = Mycobacterium smegmatis ribosomes, read-out: IC50 Bacterial

CCC[C@@H]1C(CO)O[C@H](O[C@@H]2C(N)C[C@@H](N)C(O)[C@H]2O[C@@H]2O[C@H](CO)[C@H](O[C@H]3OC(CN)[C@@H](O)C(O)C3N)C2O)[C@@H](N)C1O (stereo partly shown) [Compound 079]
MIC [1]: 1 to 2 µg/mL (≈ 1.56 to 3.12 µM)
MIC [2]: 0.5 µg/mL (≈ 0.779 µM)
MIC [3]: 0.5 µg/mL (≈ 0.779 µM)
MIC (M. smegmatis SZ380; [10]): 0.5 µg/mL (≈ 0.779 µM)
MIC [4, 11]: > 64 µg/mL
MIC [4, 12]: > 64 µg/mL
MIC [4, 13]: 1 to 2 µg/mL (≈ 1.56 to 3.12 µM)
MIC [4, 14]: > 32 µg/mL
MIC [4, 15]: 4 µg/mL (≈ 6.23 µM)
MIC [4, 16]: 1 µg/mL (≈ 1.56 µM)
MIC (E coli wild type; [17]): 1 µg/mL (≈ 1.56 µM)
MIC (E coli wild type; [18]): 1 µg/mL (≈ 1.56 µM)
MIC (E coli wild type; [19]): 0.5 µg/mL (≈ 0.779 µM)
zone of inhibition at 25 nmol/disc (N. gonorrhoeae): 16 mm
MIC (P aeruginosa; strain AG220 Pseudomonas aeruginosa ATCC27853, read-out: MIC AG220 P. aerugin): 4 µg/mL (≈ 6.23 µM)

NC[C@H]1O[C@H](O[C@H]2[C@H](O[C@@H]3O[C@H](CO)[C@@H](O)[C@H]3O)[C@@H](O)[C@H](N)C[C@@H]2N)[C@H](N)[C@@H](O)[C@@H]1O [Ribostamycin, ribostamycin, reference compound]
MIC [1]: 4 µg/mL (≈ 8.8 µM)
MIC [2]: 2 µg/mL (≈ 4.4 µM)
IC50 [5]: 68 µM
MIC (M. abscessus; ATCC19977, ATCC 19977 WT, Table 5 (Example 3), read-out: MIC M. abscessus ATCC 19977 WT): 128 µg/mL (≈ 282 µM)
MIC (M. abscessus; read-out: MIC M. abscessus clinical isolate): 128 µg/mL (≈ 282 µM)
MIC (M. abscessus; read-out: MIC M. abscessus engineered Δeis2): 32 µg/mL (≈ 70.4 µM)
MIC [3]: 4 µg/mL (≈ 8.8 µM)
MIC (M. smegmatis SZ380; SZ380, read-out: MIC M. smegmatis SZ380 WT, SZ380 WT, Table 5 (Example 3)): 8 µg/mL (≈ 17.6 µM)
MIC (M. smegmatis SZ380; [10]): 8 µg/mL (≈ 17.6 µM)
MIC ([4]; read-out: MIC AG003 E. coli AAC(3)-II): 4 µg/mL (≈ 8.8 µM)
MIC [4, 11]: 32 to 64 µg/mL (≈ 70.4 to 141 µM)
MIC [4, 12]: > 128 µg/mL
MIC [4, 13]: > 128 µg/mL
MIC ([4]; read-out: MIC APH(3)-VI): > 64 µg/mL
MIC ([4]; read-out: MIC APH(3′)-I): > 64 µg/mL
MIC ([4]; read-out: MIC APH(3′)-II): > 64 µg/mL
MIC ([4]; read-out: MIC APH(3′)-III): 32 to 64 µg/mL (≈ 70.4 to 141 µM)
MIC ([4]; read-out: MIC E. coli AG106 AAC(2′)-Ia): 128 µg/mL (≈ 282 µM)
MIC ([4]; read-out: MIC E. coli pGB2armA armA): 2 µg/mL (≈ 4.4 µM)
MIC ([4]; read-out: MIC E. coli pH434 AAC(2′)-Ib): > 128 µg/mL
MIC [4, 14]: > 128 µg/mL
MIC [4, 15]: 128 to 256 µg/mL (≈ 282 to 563 µM)
MIC [4, 16]: > 128 µg/mL
IC50 ([6]; cytosolic, Table 3 (Example 1), read-out: IC50 Cyt): 484 µM
IC50 [6, 20]: 484 µM
IC50 ([7]; mitochondrial, Table 3 (Example 1), read-out: IC50 Mit): 443 µM
IC50 [7, 21]: 443 µM
MIC (E coli wild type; [17]): 4 µg/mL (≈ 8.8 µM)
MIC (E coli wild type; WT, Table 3 (Example 1), read-out: MIC WT): 2 µg/mL (≈ 4.4 µM)
MIC (E coli wild type; WT, Table 5 (Example 3), read-out: MIC E. coli WT): 2 µg/mL (≈ 4.4 µM)
MIC (E coli wild type; clinical isolate AG001, WT, read-out: MIC AG001 E. coli WT): 4 µg/mL (≈ 8.8 µM)
MIC (E coli wild type; clinical isolate AG055, WT, read-out: MIC AG055 E. coli WT): 2 µg/mL (≈ 4.4 µM)
MIC (E coli wild type; [18]): 4 µg/mL (≈ 8.8 µM)
MIC (E coli wild type; [19]): 2 µg/mL (≈ 4.4 µM)
IC50 [8, 22]: 0.09 µM
IC50 ([8]; bacterial ribosome, Table 3 (Example 1), read-out: IC50 Bac): 0.09 µM
MIC (MRSA; read-out: MIC AG039 MRSA AAC(6′)-I ANT(4′)-I): > 128 µg/mL
MIC (MRSA; read-out: MIC AG042 MRSA AAC(6′)-I ANT(4′)-I APH(2′)): > 128 µg/mL
MIC (MRSA; clinical isolate AG038, read-out: MIC AG038 MRSA): 4 µg/mL (≈ 8.8 µM)
MIC (MRSA; clinical isolate AG044, read-out: MIC AG044 MRSA): 8 µg/mL (≈ 17.6 µM)
MIC (P aeruginosa; Pseudomonas aeruginosa, ATCC27853, read-out: MIC AG220 P. aerugin): > 128 µg/mL
MIC (P aeruginosa; Pseudomonas aeruginosa, read-out: MIC AG031 P. aer. APH(3′)-II): > 128 µg/mL
MIC (P aeruginosa; Pseudomonas aeruginosa, read-out: MIC AG032 P. aer. APH(3′)-II): > 128 µg/mL
IC50 [9]: 172 µM

CCNC1C(OC2C(N)CC(N)C(O)C2OC2OC(CO)C(OC3OC(CN)C(O)C(O)C3N)C2O)OC(CN)C(O)C1O (stereo not shown) [DC-172]
IC50 [5]: 1.6 µM
MIC AG003 E. coli AAC(3)-II ([4]; clinical isolate AG003, AAC(3)-II): 1 µg/mL (≈ 1.56 µM)
IC50 [6, 20]: 43 µM
IC50 [7, 21]: 11 µM
MIC AG001 E. coli WT (E coli wild type; clinical isolate AG001, WT): 1 to 2 µg/mL
MIC AG055 E. coli WT (E coli wild type; clinical isolate AG055, WT): 1 µg/mL (≈ 1.56 µM)
IC50 [8, 22]: 0.01 µM
MIC AG038 MRSA (MRSA; clinical isolate AG038): 0.5 µg/mL (≈ 0.778 µM)
MIC AG039 MRSA AAC(6′)-I ANT(4′)-I (MRSA; clinical isolate AG039, AAC(6′)-I ANT(4′)-I): >32 µg/mL
MIC AG042 MRSA AAC(6′)-I ANT(4′)-I APH(2′) (MRSA; clinical isolate AG042, AAC(6′)-I ANT(4′)-I APH(2′)): >32 µg/mL
MIC AG044 MRSA (MRSA; clinical isolate AG044): 1 µg/mL (≈ 1.56 µM)
MIC AG031 P. aer. APH(3′)-II (P aeruginosa; clinical isolate AG031, APH(3′)-II): >64 µg/mL
MIC AG032 P. aer. APH(3′)-II (P aeruginosa; clinical isolate AG032, APH(3′)-II): >64 µg/mL
IC50 [9]: 45 µM
